Tests used:
CK1g1 = CK1g1 (Homo sapiens, UniProt Q9HCP0); assay: kinase inhibition assay panel; assay type: biochemical
CLK2 = CLK2 (Homo sapiens, UniProt P49760); assay: kinase inhibition assay panel; assay type: biochemical
FGFR1 = FGFR1 (Homo sapiens, UniProt P11362); assay: kinase inhibition assay panel; assay type: biochemical
SH-SY5Y-TMHT cells = assay: Cell viability, MTT assay; assay type: cell-based, human; details: 6 h of treatment
Protocol: (§1) SH-SY5Y-TMHT cells are kept in culture medium (DMEM medium, 10% FCS, 1% NEAA, 1% L-Glutamine, 100 μg/ml Gentamycin, 300 μg/ml Geneticin G-418) for 2 days until 80-90% confluency. Cells are then differentiated in culture medium supplemented with 10 μM retinoic acid (RA) for 7 days changing medium every 2 to 3 days. Differentiated cells are seeded onto 6-well plates and 96-well plates at a cell density of 1.25×10^6 and 8×10^5 cells per well, respectively. On day 8 post-differentiation, the test compounds, reference compounds and vehicle control were added to the culture medium. After 6 h of compound exposure one plate of cells is subjected to a MTT assay to evaluate the effect of test and reference items on cell viability. Remaining wells are washed once with cold PBS and harvested in 300 μl RIPA-Buffer [50 mM Tris pH 7.4, 1% Nonident P40, 0.25% Na-deoxy-cholate, 150 mM NaCl, 1 mM EDTA, 1 μM NaF, 1 μM Na-ortho-vanadate, 80 mM Glycerophosphate, supplemented with freshly added protease (Calbiochem) and phosphatase (Sigma) inhibitor cocktail]. The cell suspension is transferred into a 1.5 ml tube and additionally lysed by sonication on ice. An aliquot of 20 μl is taken for the determination of the protein concentration (BCA assay). Subsequently, the lysates are snap frozen and stored at −80° C. until shipment.
To determine compound activity, it is necessary to control for potential cell toxicity of all molecules. Viability of cultures is determined by the MTT assay. This assay allows the measurement of the mitochondrial dehydrogenase activity which reduces yellow MTT to dark blue formazan crystals. Since this reaction is catalyzed in living cells only this assay is used for the determination of cell viability. MTT solution is added to each well in a final concentration of 0.5 mg/ml. After 2 hours, the MTT containing medium is aspired. Cells are lysed in 3% SDS and the formazan crystals are dissolved in isopropanol/HCl. Optical density is measured with a plate-reader at wavelength 570 nm. Cell survival rate is expressed as optical density (OD). Values are calculated as percent of control values.
Cell viability was determined in differentiated SH-SY5Y-TMHT cells by the MTT assay. Test and reference compounds were applied in a concentration range from 0.05 μM to 10 μM and from 0.1 μM to 1 μM, respectively. Upon 6 h of treatment, cell viability was evaluated. […] Statistical significance is indicated by *<0.05, **<0.01, ***<0.001 as determined by One-Way ANOVA. Data are shown from two independent experiments as group mean+/−SEM (n=8). […] Statistical significance is indicated by *<0.05, **<0.01, ***<0.001 as determined by One-Way ANOVA. […] Statistical significance is indicated by *<0.05, **<0.01, ***<0.001 as determined by One-Way ANOVA. […]

[1] = tested on: Tau phosphorylation in SH-SY5Y-TMHT cells; assay: PhosphoTau SRM assay V2 and V3 (mass spectrometric); assay type: cell-based, human; details: for relative level of phosphorylation at each site (level of phosphopeptide) compared with vehicle treated controls / Tau phosphorylated at S396: 10 μM; for relative level of phosphorylation at each site (level of phosphopeptide) compared with vehicle treated controls: PhosphoTau SRM assay V2 and V3; for Tau phosphorylated at S396: vehicle control approximately 83%; for phosphorylation of Ser 396 within Tau proteins: FIG. 4
Description: The PhosphoTau SRM V2 assay measures total tau and relative phosphorylation levels at five of the most commonly studied sites on Tau and was obtained from Proteome Sciences plc (Cobham, England). None of the sites in the V2 assay is uniquely phosphorylated by CK1δ and there is a possibility that compound-induced inhibition of phosphorylation measured by this method may be achieved through promiscuous inhibition of other kinases such as GSK3b and/or CDK5. […] Table 1 lists the various sites covered and the candidate Tau kinases reported in Hanger et al. (2007).
as §1, with “Differentiated cells are seeded onto 6-well plates and 96-well plates at a cell density of 1.25×10^6 and 8×10^5 cells per well, respectively.” left out
Stacking gels are loaded with approximately 100 μg total protein based on BCA assay results. Gels are run until the total protein content forms a single discrete band in the stacking gel. Each protein band is then cut from the gel and digested with either trypsin or Asp-N and analysed using the PhosphoTau SRM assay V2 or V3 respectively. Each assay method quantifies the phosphorylation in pre-clinical material using a triple quadrupole mass spectrometer (TSQ Vantage, Thermo Scientific, Hemel Hempstead, UK). Prior to SRM analysis phosphopeptides and pre-clinical samples were resolved by RP-chromatography (XBridge column, Waters, Manchester, UK) over a 9 minute gradient 0-30% ACN (buffer A; 0.1% FA, buffer B; ACN, 0.1% FA). Light and heavy versions for each peptide and phosphopeptide were monitored by several SRM transitions, using optimised S Lens values and collision energy settings. The area under the SRM LC peak was used to quantitate the amount of analyte present in each cell lysate as a single point reference to the signal of the heavy peptide spike.
An 11 point calibration curve of light phosphopeptides with each point in the curve spiked with 100 fmol heavy phosphopeptides was also produced to determine assay characteristics (LOD, LOQ, precision and accuracy). For each specified tau population, the endogenous level of each tau phosphopeptide was quantified against its calibration curve (0.25-1000 fmol on column). Prior to LC-SRM analysis each tau population was spiked with 100 fmol of the heavy phosphopeptide standards.

Chain of CK1g1 (Q9HCP0 whole entry): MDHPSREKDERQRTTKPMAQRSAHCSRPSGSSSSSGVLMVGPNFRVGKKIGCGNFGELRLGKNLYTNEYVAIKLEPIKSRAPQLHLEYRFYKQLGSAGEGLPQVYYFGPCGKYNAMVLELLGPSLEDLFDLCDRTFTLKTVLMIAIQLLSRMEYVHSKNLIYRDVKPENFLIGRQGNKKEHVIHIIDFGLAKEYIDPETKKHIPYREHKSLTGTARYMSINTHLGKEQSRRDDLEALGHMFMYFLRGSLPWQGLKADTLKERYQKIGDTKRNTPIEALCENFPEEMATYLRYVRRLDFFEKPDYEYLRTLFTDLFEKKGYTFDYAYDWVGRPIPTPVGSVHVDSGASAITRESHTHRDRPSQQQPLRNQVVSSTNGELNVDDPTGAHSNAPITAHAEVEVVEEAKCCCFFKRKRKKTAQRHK
Chain of FGFR1 (P11362 22-822, species assumed): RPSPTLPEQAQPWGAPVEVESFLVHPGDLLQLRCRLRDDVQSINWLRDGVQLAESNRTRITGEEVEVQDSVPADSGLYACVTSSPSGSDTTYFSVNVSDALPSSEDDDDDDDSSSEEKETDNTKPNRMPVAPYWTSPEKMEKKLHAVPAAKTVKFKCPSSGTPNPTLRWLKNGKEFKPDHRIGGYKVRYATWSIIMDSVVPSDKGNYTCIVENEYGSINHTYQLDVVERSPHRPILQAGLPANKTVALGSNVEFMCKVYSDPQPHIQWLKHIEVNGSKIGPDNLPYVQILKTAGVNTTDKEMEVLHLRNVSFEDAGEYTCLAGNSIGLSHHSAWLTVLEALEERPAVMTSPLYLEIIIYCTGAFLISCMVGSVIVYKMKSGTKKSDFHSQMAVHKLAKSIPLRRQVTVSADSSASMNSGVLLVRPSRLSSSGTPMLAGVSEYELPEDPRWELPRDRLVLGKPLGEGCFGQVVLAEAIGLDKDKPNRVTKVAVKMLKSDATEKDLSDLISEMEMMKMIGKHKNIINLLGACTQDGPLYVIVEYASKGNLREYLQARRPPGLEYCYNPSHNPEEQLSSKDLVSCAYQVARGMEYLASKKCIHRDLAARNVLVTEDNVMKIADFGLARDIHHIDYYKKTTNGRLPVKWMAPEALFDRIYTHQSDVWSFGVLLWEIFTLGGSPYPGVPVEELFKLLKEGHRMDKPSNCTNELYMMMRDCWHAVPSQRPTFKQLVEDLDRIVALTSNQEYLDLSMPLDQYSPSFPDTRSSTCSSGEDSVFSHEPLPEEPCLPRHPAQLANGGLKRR
Chain of CLK2 (P49760 whole entry, species assumed): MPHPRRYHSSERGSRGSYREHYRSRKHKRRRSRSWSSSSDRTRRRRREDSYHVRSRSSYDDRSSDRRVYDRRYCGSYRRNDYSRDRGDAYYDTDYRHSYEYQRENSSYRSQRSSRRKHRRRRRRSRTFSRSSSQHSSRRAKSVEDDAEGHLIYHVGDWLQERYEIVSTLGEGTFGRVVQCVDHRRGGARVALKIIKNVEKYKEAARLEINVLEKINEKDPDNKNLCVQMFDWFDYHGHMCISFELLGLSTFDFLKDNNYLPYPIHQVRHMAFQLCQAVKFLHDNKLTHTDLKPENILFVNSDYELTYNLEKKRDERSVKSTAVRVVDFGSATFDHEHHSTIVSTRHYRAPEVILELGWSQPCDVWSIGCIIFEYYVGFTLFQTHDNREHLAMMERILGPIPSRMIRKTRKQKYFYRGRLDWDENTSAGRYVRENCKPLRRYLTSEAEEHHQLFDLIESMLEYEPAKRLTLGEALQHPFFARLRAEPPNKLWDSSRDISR

Row | Compound | inhibition of CK1g1 (CK1g1) | inhibition of CLK2 (CLK2) | inhibition of FGFR1 (FGFR1) | effect on the cell viability of SH-SY5Y-TMHT cells (SH-SY5Y-TMHT cells; 0.05 μM to 10 μM, vs vehicle control) | protective effect on cell viability, statistical significance (SH-SY5Y-TMHT cells; 10 μM, One-Way ANOVA) | relative level of phosphorylation at each site (level of phosphopeptide) compared with vehicle treated controls [1] | Tau phosphorylated at S396 [1] [%] | phosphorylation of Ser 396 within Tau proteins [1] | effect on the cell viability of SH-SY5Y-TMHT cells (SH-SY5Y-TMHT cells; 1 and 0.5 μM)
1 | Nc1ncc(-c2nc3ccccc3o2)c(-c2ccncc2)n1 [Compound 324, 5-(1,3-benzoxazol-2-yl)-4-(pyridin-4-yl)pyrimidin-2-amine] | lower than 40% | lower than 40% | lower than 40% | protective effect on the cell viability of SH-SY5Y-TMHT cells in a dose dependent manner | statistically significant | distinct reduction | 38 | inhibit phosphorylation | 
2 | NC(=O)c1c(N)c(C(=O)c2ccc(F)cc2)n2ccccc12 [Compound 987, 2-amino-3-[(4-fluorophenyl)carbonyl]indolizine-1-carboxamide] | lower than 40% | lower than 40% | lower than 40% |  |  | distinct reduction | 24 | inhibit phosphorylation | no cytotoxic effect

From patent US9789111B2, “Casein kinase 1δ (CK 1δ) inhibitors” (Electrophoretics Limited, priority 2010, dated 2017)
